According to patent US8471005B2 (Cephalon, Inc., priority 2008, dated 2013):
pIC50: −log10 of the molar value. Where two headings read alike, the source gives them in different places.

How the values were obtained:
JAK2 = target: T1, JAK2 (Homo sapiens, UniProt O60674); test: Recombinant Human JAK2 Kinase Assay (TRF); format: biochemical; settings: read-out: JAK2 Potency
T1 construct: host or cells: baculovirus expression system
How it was run: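 TRF read-out: Eu-N1 PY100 anti-phosphotyrosine antibody detects product. Enzyme is baculovirus-expressed JAK2 at 15 ng/ml; substrate is a biotinyl 15-mer peptide bound to Neutravidin-coated wells. Buffer 20 mM HEPES pH 7.2, 0.2 μM ATP, 1 mM MnCl2, 0.1% BSA, 2.5% DMSO final; 20 min, RT.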

ALK = target: T2, ALK (Homo sapiens, UniProt Q9UM73); test: ALK Kinase Assay (ELISA/TRF, PLC-γ substrate); format: biochemical; settings: read-out: ALK Potency
T2 construct: host or cells: baculovirus expression system
T2 sequence (Q9UM73 19-1620): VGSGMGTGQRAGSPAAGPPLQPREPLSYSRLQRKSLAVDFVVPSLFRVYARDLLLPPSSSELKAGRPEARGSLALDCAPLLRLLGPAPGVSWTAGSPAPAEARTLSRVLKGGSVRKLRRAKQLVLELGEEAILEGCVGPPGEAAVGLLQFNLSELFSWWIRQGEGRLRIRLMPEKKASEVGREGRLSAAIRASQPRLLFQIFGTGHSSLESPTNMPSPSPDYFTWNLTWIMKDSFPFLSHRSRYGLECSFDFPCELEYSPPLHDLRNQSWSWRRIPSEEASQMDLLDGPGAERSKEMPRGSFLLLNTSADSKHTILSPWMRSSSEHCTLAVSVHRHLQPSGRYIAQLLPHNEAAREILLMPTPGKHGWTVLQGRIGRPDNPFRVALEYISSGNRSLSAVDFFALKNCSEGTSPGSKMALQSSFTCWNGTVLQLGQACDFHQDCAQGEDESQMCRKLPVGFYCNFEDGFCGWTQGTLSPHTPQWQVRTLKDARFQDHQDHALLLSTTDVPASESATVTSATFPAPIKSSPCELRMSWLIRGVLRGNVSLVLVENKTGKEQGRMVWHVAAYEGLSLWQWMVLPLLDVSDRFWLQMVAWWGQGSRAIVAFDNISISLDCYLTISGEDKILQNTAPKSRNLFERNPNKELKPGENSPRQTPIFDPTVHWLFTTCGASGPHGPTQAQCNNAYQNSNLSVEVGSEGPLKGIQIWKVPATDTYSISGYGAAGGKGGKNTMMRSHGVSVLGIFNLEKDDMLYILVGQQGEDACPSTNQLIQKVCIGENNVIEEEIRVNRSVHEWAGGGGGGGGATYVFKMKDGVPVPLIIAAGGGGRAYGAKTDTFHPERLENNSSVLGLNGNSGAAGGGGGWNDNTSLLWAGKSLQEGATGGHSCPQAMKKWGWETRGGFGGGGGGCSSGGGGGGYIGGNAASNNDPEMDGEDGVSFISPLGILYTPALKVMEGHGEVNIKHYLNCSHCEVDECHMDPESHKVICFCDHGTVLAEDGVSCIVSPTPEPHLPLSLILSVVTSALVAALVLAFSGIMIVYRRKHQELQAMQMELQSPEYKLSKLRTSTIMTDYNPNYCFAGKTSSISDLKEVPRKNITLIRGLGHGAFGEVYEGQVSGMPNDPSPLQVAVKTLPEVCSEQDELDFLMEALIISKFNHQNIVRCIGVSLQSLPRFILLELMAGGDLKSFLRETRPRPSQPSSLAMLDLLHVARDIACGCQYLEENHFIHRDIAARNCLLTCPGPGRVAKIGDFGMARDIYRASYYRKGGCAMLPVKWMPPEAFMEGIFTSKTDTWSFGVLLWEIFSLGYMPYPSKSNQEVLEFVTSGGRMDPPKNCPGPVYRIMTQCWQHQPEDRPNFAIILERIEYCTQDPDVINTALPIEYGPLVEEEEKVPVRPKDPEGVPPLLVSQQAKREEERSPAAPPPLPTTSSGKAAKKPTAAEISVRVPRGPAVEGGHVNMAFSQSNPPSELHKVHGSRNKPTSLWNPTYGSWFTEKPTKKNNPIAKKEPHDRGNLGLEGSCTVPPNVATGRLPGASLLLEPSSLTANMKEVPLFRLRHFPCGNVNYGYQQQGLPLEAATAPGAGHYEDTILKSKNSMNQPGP
How it was run: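 First, plates are coated with substrate (phospholipase C-γ, 10 μg/mL, TBS). Next, 30 ng/ml ALK initiates phosphorylation for 15 min at 37° C. Then Eu-N1 PT66 antibody is added for detection, and a nonlinear dose-response fit of percent inhibition yields IC50.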

[1] = JAK2 kinase inhibition, 0.2 μM ATP
[2] = ALK kinase inhibition, 1 μM ATP

T1 sequence (O60674 whole entry): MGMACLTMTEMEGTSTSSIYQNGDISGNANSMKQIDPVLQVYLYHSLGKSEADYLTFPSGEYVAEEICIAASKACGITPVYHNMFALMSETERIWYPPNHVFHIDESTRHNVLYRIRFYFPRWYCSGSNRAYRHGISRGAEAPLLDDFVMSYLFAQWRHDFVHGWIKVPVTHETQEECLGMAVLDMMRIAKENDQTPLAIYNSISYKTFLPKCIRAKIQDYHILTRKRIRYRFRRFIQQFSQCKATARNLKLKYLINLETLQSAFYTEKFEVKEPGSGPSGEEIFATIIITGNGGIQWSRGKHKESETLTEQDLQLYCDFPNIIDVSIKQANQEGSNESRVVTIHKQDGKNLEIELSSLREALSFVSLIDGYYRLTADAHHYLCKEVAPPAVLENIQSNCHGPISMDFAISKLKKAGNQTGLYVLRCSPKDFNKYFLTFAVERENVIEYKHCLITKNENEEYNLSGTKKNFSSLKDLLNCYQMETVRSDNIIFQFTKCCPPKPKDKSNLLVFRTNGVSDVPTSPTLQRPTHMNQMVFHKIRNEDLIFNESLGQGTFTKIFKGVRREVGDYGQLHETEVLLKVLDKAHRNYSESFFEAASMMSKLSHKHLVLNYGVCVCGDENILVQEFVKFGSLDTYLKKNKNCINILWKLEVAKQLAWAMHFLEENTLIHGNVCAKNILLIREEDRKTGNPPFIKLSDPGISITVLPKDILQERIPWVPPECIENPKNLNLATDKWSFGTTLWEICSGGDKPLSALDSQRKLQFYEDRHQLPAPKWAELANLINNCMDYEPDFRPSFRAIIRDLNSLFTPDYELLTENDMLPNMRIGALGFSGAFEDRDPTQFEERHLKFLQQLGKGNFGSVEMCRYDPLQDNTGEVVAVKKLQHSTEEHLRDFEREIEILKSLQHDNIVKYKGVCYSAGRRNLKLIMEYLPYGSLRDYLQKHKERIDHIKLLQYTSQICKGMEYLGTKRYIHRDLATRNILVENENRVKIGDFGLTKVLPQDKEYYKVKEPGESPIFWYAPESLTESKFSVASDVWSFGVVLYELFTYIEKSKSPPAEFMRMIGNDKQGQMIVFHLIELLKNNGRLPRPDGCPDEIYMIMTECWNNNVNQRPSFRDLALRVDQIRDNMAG

Compound	pIC50 (JAK2; [1])	pIC50 (ALK; [2])	pIC50 (JAK2; JAK2 Kinase Inhibition)	pIC50 (ALK; ALK Kinase Inhibition)
N-{2-[2-(4-{4-[1-(2-Hydroxy-ethyl)-piperidin-4-yl]-[1,4]diazepan-1-yl}-2-methoxy-phenylamino)-pyrrolo[2,1-f][1,2,4]triazin-7-yl]-phenyl}-N-methyl-methanesulfonamide [Example 802]	5.00 to 6.00	> 7.00		
[7-(4-Methanesulfonyl-phenyl)-pyrrolo[2,1-f][1,2,4]triazin-2-yl]-(4-piperidin-1-yl-phenyl)-amine [Example 85]			> 7.00	< 5.00
COc1ccccc1-c1ccc2cnc(Nc3ccc(C4CCN(CCO)CC4)cc3)nn12 [Example 668, 2-(4-{4-[7-(2-Methoxy-phenyl)-pyrrolo[2,1-f][1,2,4]triazin-2-ylamino]-phenyl}-piperidin-1-yl)-ethanol]	> 7.00	> 7.00		
CN(c1ccccc1-c1ccc2cnc(Nc3ccc(=O)[nH]c3)nn12)S(C)(=O)=O [Example 596, N-Methyl-N-{2-[2-(6-oxo-1,6-dihydro-pyridin-3-ylamino)-pyrrolo[2,1-f][1,2,4]triazin-7-yl]-phenyl}-methanesulfonamide]	> 7.00	5.00 to 6.00		
COc1cc(N2CCN(C[C@H](C)O)CC2)ccc1Nc1ncc2ccc(-c3ccccc3S(C)(=O)=O)n2n1 [Example 541, (S)-1-(4-{4-[7-(2-Methanesulfonyl-phenyl)-pyrrolo[2,1-f][1,2,4]triazin-2-ylamino]-3-methoxy-phenyl}-piperazin-1-yl)-propan-2-ol]	5.00 to 6.00	6.00 to 7.00		
CS(=O)(=O)c1cccc(-c2ccc3cnc(Nc4ccc(Cl)c(OC[C@@H]5CCCN5)c4)nn23)c1 [Example 1020, [4-Chloro-3-((S)-1-pyrrolidin-2-ylmethoxy)-phenyl]-[7-(3-methanesulfonyl-phenyl)-pyrrolo[2,1-f][1,2,4]triazin-2-yl]-amine]	> 7.00	5.00 to 6.00		
CS(=O)(=O)c1cccc(-c2ccc3cnc(Nc4ccc(N5CCC(CO)CC5)cc4)nn23)c1 [Example 96, (1-{4-[7-(3-Methanesulfonyl-phenyl)-pyrrolo[2,1-f][1,2,4]triazin-2-ylamino]-phenyl}-piperidin-4-yl)-methanol]			> 7.00	6.00 to 7.00
COc1ccc(Cl)cc1-c1ccc2cnc(Nc3cccc(N4CCC(N5CCOCC5)CC4)c3)nn12 [Example 196, [7-(5-Chloro-2-methoxy-phenyl)-pyrrolo[2,1-f][1,2,4]triazin-2-yl]-[3-(4-morpholin-4-yl-piperidin-1-yl)-phenyl]-amine]			> 7.00	> 7.00
COc1ccc(Cl)cc1-c1ccc2cnc(Nc3cccc(C(=O)N4CCOCC4)c3)nn12 [Example 328, {3-[7-(5-Chloro-2-methoxy-phenyl)-pyrrolo[2,1-f][1,2,4]triazin-2-ylamino]-phenyl}-morpholin-4-yl-methanone]			> 7.00	6.00 to 7.00
C[C@H](O)CN1CCN(c2cccc(Nc3ncc4ccc(-c5ccc(S(C)(=O)=O)cc5)n4n3)c2)CC1 [Example 216, (S)-1-(4-{3-[7-(4-Methanesulfonyl-phenyl)-pyrrolo[2,1-f][1,2,4]triazin-2-ylamino]-phenyl}-piperazin-1-yl)-propan-2-ol]			> 7.00	6.00 to 7.00
CC(C)(C)NS(=O)(=O)c1cccc(-c2ccc3cnc(Nc4ccc(N5CCOCC5)cc4)nn23)c1 [Example 561, N-tert-Butyl-3-[2-(4-morpholin-4-yl-phenylamino)-pyrrolo[2,1-f][1,2,4]triazin-7-yl]-benzenesulfonamide]	> 7.00	6.00 to 7.00		
COc1cc(C2CCN(C(=O)CN(C)C)CC2)ccc1Nc1ncc2ccc(-c3ccccc3N(C)S(C)(=O)=O)n2n1 [Example 813, N-[2-(2-{4-[1-(2-Dimethylamino-acetyl)-piperidin-4-yl]-2-methoxy-phenylamino}-pyrrolo[2,1-f][1,2,4]triazin-7-yl)-phenyl]-N-methyl-methanesulfonamide]	5.00 to 6.00	> 7.00		
CN1CCN(c2ccc(Nc3ncc4ccc(-c5ccccc5)n4n3)cc2)CC1 [Example 7, [4-(4-Methyl-piperazin-1-yl)-phenyl]-(7-phenyl-pyrrolo[2,1-f][1,2,4]triazin-2-yl)-amine]			> 7.00	> 7.00
Cc1ccncc1-c1ccc2cnc(Nc3ccc(N4CCN(C)CC4)cc3)nn12 [Example 1039, [4-(4-Methyl-piperazin-1-yl)-phenyl]-[7-(4-methyl-pyridin-3-yl)-pyrrolo[2,1-f][1,2,4]triazin-2-yl]-amine]	> 7.00	6.00 to 7.00		
COc1ccc(Cl)cc1-c1ccc2cnc(Nc3ccc(C4CCN(CC(N)=O)CC4)cc3)nn12 [Example 1024]	> 7.00	> 7.00		
CNC(=O)CN1CCC(c2ccc(Nc3ncc4ccc(-c5ccccc5N(C)S(C)(=O)=O)n4n3)c(OC)c2)CC1 [Example 870, 2-[4-(4-{7-[2-(Methanesulfonyl-methyl-amino)-phenyl]-pyrrolo[2,1-f][1,2,4]triazin-2-ylamino}-3-methoxy-phenyl)-piperidin-1-yl]-N-methyl-acetamide]	6.00 to 7.00	> 7.00		
CN(c1ccccc1-c1ccc2cnc(-n3ccnc3)nn12)S(C)(=O)=O [Example 622, N-[2-(2-Imidazol-1-yl-pyrrolo[2,1-f][1,2,4]triazin-7-yl)-phenyl]-N-methyl-methanesulfonamide]	> 7.00	5.00 to 6.00		
COc1ccccc1-c1ccc2cnc(Nc3ccc4c(c3)CS(=O)(=O)C4)nn12 [Example 659, (2,2-Dioxo-2,3-dihydro-1H-2$1(6)-benzo[c]thiophen-5-yl)-[7-(2-methoxy-phenyl)-pyrrolo[2,1-f][1,2,4]triazin-2-yl]-amine]	> 7.00	> 7.00		

Results, then the compound that gave them:

pIC50 (JAK2; [1])	pIC50 (ALK; [2])	pIC50 (JAK2; JAK2 Kinase Inhibition)	pIC50 (ALK; ALK Kinase Inhibition)	Compound
		> 7.00	6.00 to 7.00	COc1ccc(Nc2ncc3ccc(-c4cccc(S(=O)(=O)NC(C)(C)C)c4)n3n2)cc1N1CCCC1=O [Example 1377, N-tert-Butyl-3-{2-[4-methoxy-3-(2-oxo-pyrrolidin-1-yl)-phenylamino]-pyrrolo[2,1-f][1,2,4]triazin-7-yl}-benzenesulfonamide]
> 7.00	5.00 to 6.00			Cn1ncc2ccc(Nc3ncc4ccc(-c5cccc(S(=O)(=O)CC6CC6)c5)n4n3)cc21 [Example 1321, [7-(3-Cyclopropylmethanesulfonyl-phenyl)-pyrrolo[2,1-f][1,2,4]triazin-2-yl]-(1-methyl-1H-indazol-6-yl)-amine]
6.00 to 7.00	> 7.00			COc1cc(C2CCN(CC(=O)N3CCNCC3)CC2)ccc1Nc1ncc2ccc(-c3ccccc3OC)n2n1 [Example 1276, 2-(4-{3-Methoxy-4-[7-(2-methoxy-phenyl)-pyrrolo[2,1-f][1,2,4]triazin-2-ylamino]-phenyl}-piperidin-1-yl)-1-piperazin-1-yl-ethanone]
> 7.00	5.00 to 6.00			CN1CCN(c2ccc(Nc3ncc4ccc(-c5cncc(CNCCS(C)(=O)=O)c5)n4n3)cc2)CC1 [Example 1198, (7-{5-[(2-Methanesulfonyl-ethylamino)-methyl]-pyridin-3-yl}-pyrrolo[2,1-f][1,2,4]triazin-2-yl)-[4-(4-methyl-piperazin-1-yl)-phenyl]-amine]
6.00 to 7.00	> 7.00			COc1cc(C2CCN(CC(N)=O)CC2)ccc1Nc1ncc2ccc(-c3ccc(C)cc3N(C)S(C)(=O)=O)n2n1 [Example 1280, 2-[4-(4-{7-[2-(Methanesulfonyl-methyl-amino)-4-methyl-phenyl]-pyrrolo[2,1-f][1,2,4]triazin-2-ylamino}-3-methoxy-phenyl)-piperidin-1-yl]-acetamide]
		5.00 to 6.00	5.00 to 6.00	COc1ccccc1-c1ccc2cnc(-c3nc4cc(N5CCN(C)CC5)ccc4[nH]3)nn12 [Example 1505, 7-(2-Methoxy-phenyl)-2-[5-(4-methyl-piperazin-1-yl)-1H-benzimidazol-2-yl]-pyrrolo[2,1-f][1,2,4]triazine]
		6.00 to 7.00	> 7.00	COc1cc(N2CCN(C3CCOCC3)CC2)ccc1Nc1ncc2ccc(-c3ccccc3N(C)S(C)(=O)=O)n2n1 [Example 1471, N-[2-(2-{2-Methoxy-4-[4-(tetrahydro-pyran-4-yl)-piperazin-1-yl]-phenylamino}-pyrrolo[2,1-f][1,2,4]triazin-7-yl)-phenyl]-N-methyl-methanesulfonamide]
5.00 to 6.00	6.00 to 7.00			COc1cc(C2CCN(CC(=O)OC(C)(C)C)CC2)ccc1Nc1ncc2ccc(-c3ccccc3OC)n2n1 [Example 1277, (4-{3-Methoxy-4-[7-(2-methoxy-phenyl)-pyrrolo[2,1-f][1,2,4]triazin-2-ylamino]-phenyl}-piperidin-1-yl)-acetic acid tert-butyl ester]
		> 7.00	5.00 to 6.00	COc1ccc(-c2ccc3cnc(Nc4ccc5nc(CN6CCOCC6)[nH]c5c4)nn23)cn1 [Example 1513, [7-(6-Methoxy-pyridin-3-yl)-pyrrolo[2,1-f][1,2,4]triazin-2-yl]-(2-morpholin-4-ylmethyl-3H-benzimidazol-5-yl)-amine]
		> 7.00	5.00 to 6.00	COc1ccc(-c2ccc3cnc(Nc4ccc(C(=O)N5CCN(C)CC5)cc4)nn23)cn1 [Example 1420, {4-[7-(6-Methoxy-pyridin-3-yl)-pyrrolo[2,1-f][1,2,4]triazin-2-ylamino]-phenyl}-(4-methyl-piperazin-1-yl)-methanone]
> 7.00	< 5.00			c1cncc(-c2ccc3cnc(Nc4cnn(CCN5CCOCC5)c4)nn23)c1 [Example 1191, [1-(2-Morpholin-4-yl-ethyl)-1H-pyrazol-4-yl]-(7-pyridin-3-yl-pyrrolo[2,1-f][1,2,4]triazin-2-yl)-amine]
